target: c-Myc template DNA (c-myc quadruplex); assay: Quadruplex binding / stop assay (Taq polymerase arrest, capillary electrophoresis); settings: read-out: S DATA; Table 1D, stop assay data

Row | IC50 | SMILES
1 | 1.75 µM | CC1CCCN(CCCNc2c(F)cc3c(=O)c(C(=O)NCCC4CCCN4C)cn4c3c2Oc2cc3ccccc3cc2-4)C1 (centres unmarked) [compound 1685]
2 | 1.75 µM | CN1CCCC1CCNC(=O)c1cn2c3c(c(NC(=O)C4CCCNC4)c(F)cc3c1=O)Oc1cc3ccccc3cc1-2 (centres unmarked) [compound 1480]
3 | 9.4 µM | CCN(CC)CCCC(C)NC(=O)c1cn2c3c(c(NCCc4ccc(OC)c(OC)c4)c(F)cc3c1=O)Oc1cc3ccccc3cc1-2 (centres unmarked) [compound 1758]
4 | > 15 µM | CN(C)CCCCNC(=O)c1cn2c3c(c(NCCCN4CCN(C)CC4)c(F)cc3c1=O)Oc1ccccc1-2 [compound 1578]
5 | 1.75 µM | NC1CCN(c2c(F)cc3c(=O)c(C(=O)NCC(O)CO)cn4c3c2Oc2cc3ccccc3cc2-4)C1 (centres unmarked) [compound 1704]
6 | 1.75 µM | CN1CCCC1CCNc1ccc2c(=O)c(C(=O)NCCN3CCOCC3)cn3c2c1Oc1cc2ccccc2cc1-3 (centres unmarked) [compound 1527]
7 | 9.8 µM | O=C(NCCN1CCCC1)c1cn2c3c(c(N4CCN(Cc5ccsc5)CC4)c(F)cc3c1=O)Oc1cc(Cl)ccc1-2 [compound 1831]
8 | 1.5 µM | O=C(NCCN1CCCC1)c1cn2c3c(c(N4CCC(c5cnccn5)C4)ccc3c1=O)Oc1cc3ccccc3cc1-2 (centres unmarked) [compound 1723]
9 | 1.75 µM | CN1CCN(CCCNc2ccc3c(=O)c(C(=O)NCCCN4CCOCC4)cn4c3c2Oc2cc3ccccc3cc2-4)CC1 [compound 1554]
10 | 0.75 µM | CN1CCN(CCCNc2ccc3c(=O)c(C(=O)NCCN4CCCC4)cn4c3c2Oc2cc3ccccc3cc2-4)CC1 [compound 1552]
11 | 0.75 µM | CN1CCCC1CCNC(=O)c1cn2c3c(c(NCCN4CCCCC4)c(F)cc3c1=O)Oc1cc3ccccc3cc1-2 (centres unmarked) [compound 1488]
12 | > 15 µM | NC1CCN(C(=O)c2cn3c4c(c(N5CCC(N)C5)c(F)cc4c2=O)Oc2ccccc2-3)C1 (centres unmarked) [compound 1622]
13 | 1.75 µM | O=C(NCCC1CCCN1)c1cn2c3c(c(NCCN4CCCC4)ccc3c1=O)Oc1cc3ccccc3cc1-2 (centres unmarked) [compound 1516]
14 | > 15 µM | NC1CCN(C(=O)c2cn3c4c(c(NCCN5CCCC5)c(F)cc4c2=O)Oc2ccccc2-3)C1 (centres unmarked) [compound 1629]
15 | 4.2 µM | CN1CCCC1CCNC(=O)c1cn2c3c(c(NCc4ccco4)c(F)cc3c1=O)Oc1cc3ccccc3cc1-2 (centres unmarked) [compound 1755]
16 | > 15 µM | CN1CCCC1CCNC(=O)c1cn2c3c(c(NC4CCOC(C)(C)C4)c(F)cc3c1=O)Oc1cc3ccccc3cc1-2 (centres unmarked) [compound 1751]
17 | 1.75 µM | CN1CCCC1CCNC(=O)c1cn2c3c(c(N4CCC(N)CC4)c(F)cc3c1=O)Oc1cc3ccccc3cc1-2 (centres unmarked) [compound 1616]
18 | 0.75 µM | CN1CCCC1CCNC(=O)c1cn2c3c(c(NCCN4CCCC4)ccc3c1=O)Oc1cc3ccccc3cc1-2 (centres unmarked) [compound 1517]
19 | > 15 µM | O=C(NCCN1CCCC1)c1cn2c3c(c(NCC4CCCO4)c(F)cc3c1=O)Oc1cc(Cl)ccc1-2 (centres unmarked) [compound 1794]
20 | > 15 µM | CN1CCCC1CCNC(=O)c1cn2c3c(c(N4C[C@@H](NC(=O)OC(C)(C)C)[C@H](c5ccccc5)C4)c(F)cc3c1=O)Oc1cc3ccccc3cc1-2 (some centres unmarked) [compound 1514]
21 | 0.75 µM | CN1CCN(CCCNC(=O)c2cn3c4c(c(N5CC6CCCNC6C5)c(F)cc4c2=O)Oc2cc4ccccc4cc2-3)CC1 (centres unmarked) [compound 1641]
22 | > 15 µM | CC(C)N1CCN(c2c(F)cc3c(=O)c(C(=O)NCCCN4CCOCC4)cn4c3c2Oc2ccc(Cl)cc2-4)CC1 [compound 1791]
23 | > 15 µM | NC1CCN(c2c(F)cc3c(=O)c(C(=O)NCCc4c[nH]c5ccccc45)cn4c3c2Oc2cc3ccccc3cc2-4)C1 (centres unmarked) [compound 1696]

same assay, conditions: read-out: Stop Data c-Myc μM; concentration at which 50% of the DNA was arrested (arrested:full-length 1:1)

Row | IC50 | SMILES
24 | 0.75 µM | O=C(NCCCN1CCOCC1)c1cn2c3cc4oc5cc([N+](=O)[O-])ccc5[nH]c4cc3oc3c(NCCCN4CCOCC4)c(F)cc(c1=O)c32 [compound 415]
25 | 1.75 µM | CCCCOCCCNc1c(F)cc2c(=O)c(C(=O)NCCC3CCCN3C)cn3c2c1Oc1cc2ccccc2cc1-3 (centres unmarked) [compound 1470]
26 | 1.75 µM | CN(C)CCCCNc1c(F)cc2c(=O)c(C(=O)NCCCn3ccnc3)cn3c2c1Oc1c-3ccc2ccccc12 [compound 142]
27 | 1.75 µM | CC1CCCCN1CCCNc1c(F)cc2c(=O)c(C(=O)NCCC3CCCN3C)cn3c2c1Oc1cc2ccccc2cc1-3 (centres unmarked) [compound 259]
28 | 1.75 µM | CN1CCCC1CCNC(=O)c1cn2c3c(c(N4CCC(NC(=O)OC(C)(C)C)CC4)c(F)cc3c1=O)Oc1cc3ccccc3cc1-2 (centres unmarked) [compound 262]
29 | 0.89 µM | CN1CCC[C@H]1CCNC(=O)c1cn2c3c(c(N4CCC(c5cnccn5)C4)c(F)cc3c1=O)Oc1cc3ccccc3cc1-2 (some centres unmarked) [compound 355]
30 | 1.75 µM | CN1CCN(CCCNC(=O)c2cn3c4c(c(N5CCC(N)C5)c(F)c(N)c4c2=O)Oc2cc4ccccc4cc2-3)CC1 (centres unmarked) [compound 240]
31 | 2.5 µM | CN(C)/C=N/C1CCN(c2c(F)cc3c(=O)c(C(=O)NCCC4CCCN4C)cn4c3c2Oc2cc3ccccc3cc2-4)C1 (centres unmarked) [compound 98]
32 | 2.5 µM | O=C(NCCCN1CCOCC1)c1cn2c3c(c(NCCCN4CCOCC4)c(F)cc3c1=O)Oc1ccccc1-2 [compound 47]
33 | 1.75 µM | Nc1ccc2[nH]c3cc4oc5c(NCCN6CCCC6)c(F)cc6c(=O)c(C(=O)O)cn(c4cc3oc2c1)c56 [compound 9]
34 | 0.375 µM | CN(C)CCCCNC(=O)c1cn2c3c(c(NCCC4CCCN4C)c(F)cc3c1=O)Oc1c-2ccc2ccccc12 (centres unmarked) [compound 550]
35 | 2.5 µM | CC(C)(C)OC(=O)N[C@@H]1CCN(c2c(F)cc3c(=O)c(C(=O)NCCN4CCOCC4)cn4c3c2Oc2cc3ccccc3cc2-4)C1 [compound 63]
36 | 2.5 µM | O=C(O)c1cn2c3c(c(NCCN4CCCC4)c(F)cc3c1=O)Oc1cc3ccccc3cc1-2 [compound 2]
37 | 1.75 µM | CN(C)CCCCNC(=O)c1cn2c3c(c(NCCCCN(C)C)ccc3c1=O)Oc1cc3ccccc3cc1-2 [compound 277]
38 | 0.45 µM | CN1CCN(CCCNc2c(F)cc3c(=O)c(C(=O)NCCCN4CCOCC4)cn4c5cc6c(=O)c7ccccc7c(=O)c6cc5oc2c34)CC1 [compound 492]
39 | 1.75 µM | CC(C)(C)OC(=O)NC1CCN(c2c(F)c(N)c3c(=O)c(C(=O)N4CCOCC4)cn4c3c2Oc2cc3ccccc3cc2-4)C1 (centres unmarked) [compound 230]
40 | 1.75 µM | CN1CCCC1CCNC(=O)c1cn2c3c(c(NCCN4CCOCC4)c(F)cc3c1=O)Oc1cc3c(cc1-2)oc1ccccc13 (centres unmarked) [compound 147]
41 | 0.75 µM | CN1CCN(CCCNC(=O)c2cn3c4cc5c(cc4oc4c(N6CC[C@H](NC(=O)OC(C)(C)C)C6)c(F)cc(c2=O)c43)c(=O)c2ccccc25)CC1 [compound 427]
42 | 2.5 µM | COc1cccc(CCNc2c(F)cc3c(=O)c(C(=O)NCCC4CCCN4C)cn4c3c2Oc2cc3ccccc3cc2-4)c1OC (centres unmarked) [compound 100]
43 | 0.75 µM | NC1CCN(c2ccc3c(=O)c(C(=O)NCCCN4CCOCC4)cn4c3c2Oc2cc3ccccc3cc2-4)C1 (centres unmarked) [compound 457]
44 | 1.75 µM | NC1CCN(c2ccc3c(=O)c(C(=O)O)cn4c3c2Oc2cc3ccccc3cc2-4)C1 (centres unmarked) [compound 280]
45 | 0.75 µM | CN1CCCC1CCNCC(=O)N[C@@H]1CCN(c2c(F)cc3c(=O)c(C(=O)N4CCCC4)cn4c3c2Oc2cc3c(cc2-4)oc2ccccc23)C1 (some centres unmarked) [compound 412]
46 | 1.75 µM | CN1CCCC1CCNc1c(F)cc2c(=O)c(C(N)=O)cn3c2c1Oc1cc2ccccc2cc1-3 (centres unmarked) [compound 298]
47 | 2.5 µM | CN(C)CCCCNC(=O)c1cn2c3c(c(NCCN4CCOCC4)c(F)cc3c1=O)Oc1cc3ccccc3cc1-2 [compound 59]

— patent publication US7507727B2, “Substituted quinobenzoxazine analogs and methods of using thereof” (Cylene Pharmaceuticals, Inc., priority 2003, dated 2009)
